# “And” between values parts separate entries of the source, which are not always exact repeats. Identical values can stand only once. Inconclusive results and toxic doses are left out.
# Tested on: CD2F1 mice, L1210 leukemia ip, survival T/C
# Experiment: NCI In Vivo Anticancer Drug Screen. Data for tumor model L1210 Leukemia (intraperitoneal) in CD2F1 (CDF1) mice
# Details: higher = longer survival
# Method in brief: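 Tumor-bearing mice (transplanted tumor) were split into treated and vehicle control groups, and the measured endpoint of each treated group was divided by that of its vehicle controls.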
# [1] = endpoint: mean survival time, dose: 2.5 mg/kg/injection, schedule: Q01DX009 (ip), vehicle: saline with Tween-80
# [2] = endpoint: mean survival time, dose: 5.0 mg/kg/injection, schedule: Q01DX009 (ip), vehicle: saline with Tween-80
# [3] = endpoint: mean survival time, dose: 100.0 mg/kg/injection, schedule: Q01DX009 (ip), vehicle: Klucel (hydroxypropylcellulose) (HPC)
# [4] = endpoint: mean survival time, dose: 200.0 mg/kg/injection, schedule: Q01DX009 (ip), vehicle: Klucel (hydroxypropylcellulose) (HPC)
# [5] = endpoint: mean survival time, dose: 400.0 mg/kg/injection, schedule: Q01DX009 (ip), vehicle: Klucel (hydroxypropylcellulose) (HPC)
# [6] = endpoint: mean survival time, dose: 100.0 mg/kg/injection, schedule: Q01DX009 (ip), vehicle: saline with Tween-80
# [7] = endpoint: mean survival time, dose: 200.0 mg/kg/injection, schedule: Q01DX009 (ip), vehicle: saline with Tween-80
# [8] = endpoint: mean survival time, dose: 400.0 mg/kg/injection, schedule: Q01DX009 (ip), vehicle: saline with Tween-80
# [9] = endpoint: mean survival time, dose: 100.0 mg/kg/injection, schedule: Q04DX002 (ip), vehicle: saline
# [10] = endpoint: mean survival time, dose: 200.0 mg/kg/injection, schedule: Q04DX002 (ip), vehicle: saline
# [11] = endpoint: mean survival time, dose: 100.0 mg/kg/injection, schedule: Q04DX003 (ip), vehicle: saline with Tween-80
# [12] = endpoint: mean survival time, dose: 200.0 mg/kg/injection, schedule: Q04DX003 (ip), vehicle: saline with Tween-80
# [13] = endpoint: mean survival time, dose: 400.0 mg/kg/injection, schedule: Q04DX003 (ip), vehicle: saline with Tween-80
# [14] = endpoint: mean survival time, dose: 100.0 mg/kg/injection, schedule: Q04DX002 (ip), vehicle: saline with Tween-80
# [15] = endpoint: mean survival time, dose: 200.0 mg/kg/injection, schedule: Q04DX002 (ip), vehicle: saline with Tween-80
# [16] = endpoint: mean survival time, dose: 400.0 mg/kg/injection, schedule: Q04DX002 (ip), vehicle: saline with Tween-80
# [17] = endpoint: mean survival time, dose: 100.0 mg/kg/injection, schedule: Q01DX001 (ip), vehicle: saline with Tween-80
# [18] = endpoint: mean survival time, dose: 200.0 mg/kg/injection, schedule: Q01DX001 (ip), vehicle: saline with Tween-80
# [19] = endpoint: mean survival time, dose: 400.0 mg/kg/injection, schedule: Q01DX001 (ip), vehicle: saline with Tween-80
# [20] = endpoint: mean survival time, dose: 400.0 mg/kg/injection, schedule: Q04DX002 (ip), vehicle: saline
structure (smiles),measurement,setting,value
C[C@H](C[P+](c1ccccc1)(c1ccccc1)c1ccccc1)[C@](OC(=O)c1ccccc1)(C(=O)c1ccccc1)c1ccccc1,T/C,"endpoint: mean survival time, dose: 1.25 mg/kg/injection, schedule: Q01DX009 (ip), vehicle: saline with Tween-80",101 % of control
same,T/C,[1],98 % of control
same,T/C,"endpoint: mean survival time, dose: 5.0 mg/kg/injection, schedule: Q01DX001 (ip), vehicle: saline with Tween-80",103 % of control
same,T/C,[2],98 % of control
CS(=O)(=O)OCCN(CCOS(C)(=O)=O)c1ccc(C=Nc2ccc(-c3csc(COc4ccccc4)n3)cc2)cc1,T/C,"endpoint: mean survival time, dose: 12.5 mg/kg/injection, schedule: Q01DX009 (ip), vehicle: Klucel (hydroxypropylcellulose) (HPC)",119 % of control
same,T/C,"endpoint: mean survival time, dose: 25.0 mg/kg/injection, schedule: Q01DX009 (ip), vehicle: Klucel (hydroxypropylcellulose) (HPC)",110 % of control
same,T/C,"endpoint: mean survival time, dose: 50.0 mg/kg/injection, schedule: Q01DX009 (ip), vehicle: Klucel (hydroxypropylcellulose) (HPC)",112 % of control
same,T/C,[3],115 % of control
same,T/C,[4],120 % of control
same,T/C,"endpoint: mean survival time, dose: 400.0 mg/kg/injection, schedule: Q01DX008 (ip), vehicle: Klucel (hydroxypropylcellulose) (HPC)",150 % of control
same,T/C,[5],106 % of control and 107 % of control
C/C(=N\NC(=O)c1ccccc1)c1ccccc1,T/C,[6],98 % of control
same,T/C,[7],106 % of control
same,T/C,[8],102 % of control
CC(=O)/C(C#N)=C(\C)N,T/C,"endpoint: mean survival time, dose: 50.0 mg/kg/injection, schedule: Q04DX002 (ip), vehicle: saline",103 % of control
same,T/C,[9],103 % of control
same,T/C,[10],103 % of control
CN(C)CCOc1ccccn1,T/C,[6],93 % of control
same,T/C,[11],92 % of control
same,T/C,[7],95 % of control
same,T/C,[12],87 % of control
same,T/C,[8],87 % of control
same,T/C,[13],87 % of control
COc1ccccc1NC(=O)Oc1ccc(C(C)(C)C)cc1,T/C,[14],96 % of control
same,T/C,[15],88 % of control
same,T/C,[16],100 % of control
FC(F)Cc1cccc(C(F)(F)F)c1,T/C,[17],107 % of control
same,T/C,"endpoint: mean survival time, dose: 100.0 mg/kg/injection, schedule: Q04DX003 (ip), vehicle: saline sonified",98 % of control
same,T/C,[18],103 % of control
same,T/C,"endpoint: mean survival time, dose: 200.0 mg/kg/injection, schedule: Q04DX003 (ip), vehicle: saline sonified",100 % of control
same,T/C,[19],104 % of control
same,T/C,"endpoint: mean survival time, dose: 400.0 mg/kg/injection, schedule: Q04DX003 (ip), vehicle: saline sonified",100 % of control
CCCC[NH-].CCCC[NH-].O=C(O)CC(=O)O.[Pt+2],T/C,"endpoint: mean survival time, dose: 6.25 mg/kg/injection, schedule: Q04DX003 (ip), vehicle: saline with Tween-80",96 % of control
same,T/C,"endpoint: mean survival time, dose: 25.0 mg/kg/injection, schedule: Q04DX003 (ip), vehicle: saline with Tween-80",96 % of control
same,T/C,[11],98 % of control
CCNC(=S)NN,T/C,"endpoint: mean survival time, dose: 12.5 mg/kg/injection, schedule: Q01DX009 (ip), vehicle: saline with Tween-80",100 % of control
CO/C=C1\Cc2cc(OC)c(OC)cc2C1=O,T/C,[11],100 % of control
same,T/C,[12],94 % of control
same,T/C,[13],102 % of control
Cc1ccccc1C1(O)CCCCC1,T/C,"endpoint: mean survival time, dose: 25.0 mg/kg/injection, schedule: Q01DX009 (ip), vehicle: saline with Tween-80",114 % of control
same,T/C,"endpoint: mean survival time, dose: 50.0 mg/kg/injection, schedule: Q01DX009 (ip), vehicle: saline with Tween-80",98 % of control and 108 % of control
same,T/C,[6],90 % of control
same,T/C,[11],93 % of control
same,T/C,[7],90 % of control
same,T/C,[12],94 % of control
Cc1ccc(S(=O)(=O)OCCc2ccccc2)cc1,T/C,[17],97 % of control
same,T/C,[18],97 % of control
same,T/C,[19],94 % of control
CCN(CC)C(=S)SCn1ncc2ccc([N+](=O)[O-])cc21,T/C,"endpoint: mean survival time, dose: 100.0 mg/kg/injection, schedule: Q01DX001 (ip), vehicle: saline",95 % of control
same,T/C,"endpoint: mean survival time, dose: 200.0 mg/kg/injection, schedule: Q01DX001 (ip), vehicle: saline",92 % of control
same,T/C,"endpoint: mean survival time, dose: 400.0 mg/kg/injection, schedule: Q01DX001 (ip), vehicle: saline",89 % of control
CCCCCCCCCCCCSS(=O)(=O)c1ccc(C)cc1,T/C,"endpoint: mean survival time, dose: 100.0 mg/kg/injection, schedule: Q04DX003 (ip), vehicle: other",95 % of control
same,T/C,"endpoint: mean survival time, dose: 200.0 mg/kg/injection, schedule: Q04DX003 (ip), vehicle: other",95 % of control
same,T/C,"endpoint: mean survival time, dose: 400.0 mg/kg/injection, schedule: Q04DX003 (ip), vehicle: other",95 % of control
Cc1ccc(C(=O)c2ccc(C)cc2)cc1,T/C,"endpoint: mean survival time, dose: 100.0 mg/kg/injection, schedule: Q01DX009 (ip), vehicle: saline",90 % of control
same,T/C,[9],93 % of control
same,T/C,"endpoint: mean survival time, dose: 200.0 mg/kg/injection, schedule: Q01DX009 (ip), vehicle: saline",93 % of control
same,T/C,[10],95 % of control
same,T/C,"endpoint: mean survival time, dose: 400.0 mg/kg/injection, schedule: Q01DX009 (ip), vehicle: saline",93 % of control
same,T/C,[20],95 % of control
c1ccc(CSC(SCc2ccccc2)c2ccccc2)cc1,T/C,[3],86 % of control
same,T/C,[11],96 % of control
same,T/C,[4],92 % of control
same,T/C,[12],100 % of control
same,T/C,[5],92 % of control
same,T/C,[13],97 % of control
O=C(Nc1ccccc1)Nc1ccc2c(c1)oc1ccccc12,T/C,"endpoint: mean survival time, dose: 50.0 mg/kg/injection, schedule: Q01DX001 (ip), vehicle: Klucel (hydroxypropylcellulose) (HPC)",108 % of control
same,T/C,"endpoint: mean survival time, dose: 100.0 mg/kg/injection, schedule: Q01DX001 (ip), vehicle: Klucel (hydroxypropylcellulose) (HPC)",97 % of control
same,T/C,[14],95 % of control
same,T/C,"endpoint: mean survival time, dose: 200.0 mg/kg/injection, schedule: Q01DX001 (ip), vehicle: Klucel (hydroxypropylcellulose) (HPC)",94 % of control
same,T/C,[15],91 % of control
same,T/C,[16],98 % of control
CC(=O)OCC1OC(n2cnc(C(=O)O)c2N)C(OC(C)=O)C1OC(C)=O (stereo not given),T/C,"endpoint: median survival time, dose: 8.75 mg/kg/injection, schedule: Q01DX005 (ip), vehicle: saline",98 % of control
same,T/C,"endpoint: median survival time, dose: 17.5 mg/kg/injection, schedule: Q01DX005 (ip), vehicle: saline",100 % of control
same,T/C,"endpoint: median survival time, dose: 35.0 mg/kg/injection, schedule: Q01DX005 (ip), vehicle: saline",96 % of control
same,T/C,"endpoint: median survival time, dose: 70.0 mg/kg/injection, schedule: Q01DX005 (ip), vehicle: saline",96 % of control
same,T/C,"endpoint: median survival time, dose: 140.0 mg/kg/injection, schedule: Q01DX005 (ip), vehicle: saline",98 % of control
CCCCCCCCCCCCCCN1CCCN(CCCCCCCCCCCCCC)CC1,T/C,"endpoint: mean survival time, dose: 50.0 mg/kg/injection, schedule: Q04DX003 (ip), vehicle: saline with Tween-80",93 % of control
same,T/C,[17],94 % of control
same,T/C,[6],96 % of control and 101 % of control
same,T/C,[14],96 % of control
same,T/C,[11],93 % of control and 101 % of control
same,T/C,[18],94 % of control
same,T/C,[7],98 % of control and 104 % of control
same,T/C,[15],93 % of control and 97 % of control
same,T/C,[12],98 % of control and 100 % of control
same,T/C,[19],101 % of control
same,T/C,[8],93 % of control and 95 % of control
same,T/C,[16],93 % of control and 96 % of control
same,T/C,[13],98 % of control
[Cl][Pt+2][Cl].[NH-]c1cc(Cl)c(Cl)cc1[NH-],T/C,[1],107 % of control
same,T/C,[2],105 % of control
same,T/C,"endpoint: mean survival time, dose: 10.0 mg/kg/injection, schedule: Q01DX009 (ip), vehicle: saline with Tween-80",111 % of control
same,T/C,"endpoint: mean survival time, dose: 20.0 mg/kg/injection, schedule: Q01DX009 (ip), vehicle: saline with Tween-80",106 % of control and 112 % of control
same,T/C,"endpoint: mean survival time, dose: 40.0 mg/kg/injection, schedule: Q01DX009 (ip), vehicle: saline with Tween-80",105 % of control and 112 % of control
same,T/C,"endpoint: mean survival time, dose: 80.0 mg/kg/injection, schedule: Q01DX009 (ip), vehicle: saline with Tween-80",110 % of control
same,T/C,"endpoint: mean survival time, dose: 160.0 mg/kg/injection, schedule: Q01DX009 (ip), vehicle: saline with Tween-80",104 % of control
same,T/C,"endpoint: mean survival time, dose: 320.0 mg/kg/injection, schedule: Q01DX009 (ip), vehicle: saline with Tween-80",107 % of control
NCC1=NCCN1,T/C,[9],124 % of control
same,T/C,[10],95 % of control
same,T/C,[20],102 % of control
O=C(O)C(O)C(=O)O.[NH2-].[NH2-].[Pt+2],T/C,"endpoint: mean survival time, dose: 25.0 mg/kg/injection, schedule: Q04DX003 (ip), vehicle: saline",108 % of control
same,T/C,"endpoint: mean survival time, dose: 50.0 mg/kg/injection, schedule: Q04DX003 (ip), vehicle: saline",114 % of control
same,T/C,"endpoint: mean survival time, dose: 100.0 mg/kg/injection, schedule: Q04DX003 (ip), vehicle: saline",120 % of control
Nc1nc(=S)c2[nH]c(N=Nc3ccc(S(N)(=O)=O)cc3)nc2[nH]1,T/C,"endpoint: mean survival time, dose: 50.0 mg/kg/injection, schedule: Q04DX003 (ip), vehicle: Klucel (hydroxypropylcellulose) (HPC)",123 % of control

# — PubChem BioAssay AID256 (DTP/NCI, 2004)
